Results from paper PMC4038554, “Human CD4^+ T Cell Responses to the Dog Major Allergen Can f 1 and Its Human Homologue Tear Lipocalin Resemble Each Other” (PLoS ONE, 2014).

How the values were obtained:
Assay in all cases: HLA class II peptide-binding assay (competitive ELISA)
DRB1*1501 = DRB1*1501 (Homo sapiens, UniProt P01903+P01911); conditions: immunopurified HLA, reference peptide IC50 775 nM, ratio ≤20 high affinity, 20–200 moderate affinity
DRB1*1101 = DRB1*1101 (Homo sapiens, UniProt P01903+P01911, A100R/A169T/A87E/I96F/K41T/L162R/M171V/P40S/Q125H/Q178H/Q39Y/Q99D/R42S/S66Y/T262R/V115G/W38E); conditions: immunopurified HLA, reference peptide IC50 50 nM, ratio ≤20 high affinity, 20–200 moderate affinity
DRB1*1301 = DRB1*1301 (Homo sapiens, UniProt P01903+P01911, A100E/A169T/K41T/L162R/M171V/P40S/Q125H/Q178H/Q39Y/Q99D/R42S/S66N/T262R/W38E/Y61H); conditions: immunopurified HLA, reference peptide IC50 208 nM, ratio ≤20 high affinity, 20–200 moderate affinity
DRB1*0401 = DRB1*0401 (Homo sapiens, UniProt P01903+P01911, A100K/A169T/F76Y/I96L/K127E/L162R/M171V/N62H/P40V/Q125Y/R42H/S133A/S149N/S66Y/V115G/V209L/W38E); conditions: immunopurified HLA, reference peptide IC50 8 nM, ratio ≤20 high affinity, 20–200 moderate affinity
DRB1*0701 = DRB1*0701 (Homo sapiens, UniProt P01903+P01911, A100R/A102G/A103Q/D57E/D86V/E43K/F76Y/K127E/L162R/M171V/P40G/Q125H/Q99D/R33Q/R42Y/R54Q/S133A/S66F/T210M/V115G/Y107V/Y59L/Y89S); conditions: immunopurified HLA, reference peptide IC50 5 nM, ratio ≤20 high affinity, 20–200 moderate affinity
DRB1*0101 = DRB1*0101 (Homo sapiens, UniProt P01903+P01911, A100R/D57E/F55L/F60I/F76Y/I96L/L162R/M171V/P40L/Q125E/R42F/V115G/Y59C); conditions: immunopurified HLA, reference peptide IC50 3 nM, ratio ≤20 high affinity, 20–200 moderate affinity
DRB1*0301 = DRB1*0301 (Homo sapiens, UniProt P01903+P01911, A100K/A102G/A103R/A169T/F55Y/I96L/K41T/L162R/M171V/P40S/Q125H/Q178H/Q39Y/R42S/S66N/T106N/T262R/W38E/Y61H); conditions: immunopurified HLA, reference peptide IC50 423 nM, ratio ≤20 high affinity, 20–200 moderate affinity
DRB4 = system: DRB4; design: species or system human; conditions: DRB4; competitive ELISA, immunopurified HLA; reference peptide IC50 8 nM; ratio ≤20 high affinity, 20–200 moderate affinity
DRB5 = system: DRB5; design: species or system human; conditions: DRB5; competitive ELISA, immunopurified HLA; reference peptide IC50 7 nM; ratio ≤20 high affinity, 20–200 moderate affinity
DRB3 = system: DRB3; design: species or system human; conditions: DRB3; competitive ELISA, immunopurified HLA; reference peptide IC50 60 nM; ratio ≤20 high affinity, 20–200 moderate affinity

Row | Sequence | relative binding ratio (IC50 of the test peptide divided by IC50 of the reference peptide) (DRB1*1501) | relative binding ratio (IC50 of the test peptide divided by IC50 of the reference peptide) (DRB1*1101) | relative binding ratio (IC50 of the test peptide divided by IC50 of the reference peptide) (DRB1*1301) | relative binding ratio (IC50 of the test peptide divided by IC50 of the reference peptide) (DRB1*0401) | relative binding ratio (IC50 of the test peptide divided by IC50 of the reference peptide) (DRB1*0701) | relative binding ratio (IC50 of the test peptide divided by IC50 of the reference peptide) (DRB1*0101) | relative binding ratio (IC50 of the test peptide divided by IC50 of the reference peptide) (DRB1*0301) | relative binding ratio (IC50 of the test peptide divided by IC50 of the reference peptide) (DRB4) | relative binding ratio (IC50 of the test peptide divided by IC50 of the reference peptide) (DRB5) | relative binding ratio (IC50 of the test peptide divided by IC50 of the reference peptide) (DRB3)
1 | GKWYLKAMTADQEVPE [pC1, Can f 1 peptide p15–30] | 8 | 70 | 26 | 1 | 75 | 32 | 1 | 29 | 72 | > 167
2 | EILELAQSETCSPGGQ [pC9, Can f 1 peptide p141–156] | > 13 | > 200 | > 481 | 113 | 230 | 54 | > 236 | > 1 179 | > 1 443 | > 167
3 | RQIRMAKLLGRDPEQSQ [pC7, Can f 1 peptide p107–123] | > 13 | 92 | 2 | 661 | > 1 874 | 66 | 4 | 94 | 1 | > 167
4 | LEAKITMLTNGQCQNIT [pC3, Can f 1 peptide p48–64] | 2 | 89 | 471 | 50 | 103 | 4 | 33 | > 1 179 | 339 | > 167
5 | KPVRGVKLVGRDPKNNL [pTL7, Tear lipocalin peptide p108–124] | > 13 | 105 | 236 | > 1 260 | > 1 874 | > 3844 | 8 | > 1 179 | > 1 443 | > 167
6 | MNLESVTPMTLTTLEGGNL [pTL2, Tear lipocalin peptide p31–49] | > 13 | > 200 | > 481 | 436 | 55 | 15 | > 236 | > 1 179 | 645 | > 167
7 | GTWYLKAMTVDREFPE [pTL1, Tear lipocalin peptide p15–30] | 6 | 67 | 24 | 1 | 47 | 82 | 10 | 1 | 2 | 84
8 | GKHVAYIIRSHVKDHY [pTL5, Tear lipocalin peptide p82–97] | > 13 | 0.3 | 5 | 120 | 447 | 209 | 7 | > 1 179 | 1 | > 167
